Experimental data: patent US6512123B2, “Tricyclic alkylhydroxamate derivatives” (Hoffmann-La Roche Inc., priority 2001, dated 2003)

Legend:
[1] = system: histone deacetylase (HDAC); assay: HDAC inhibition screening assay using an aminocoumarin derivative of an omega-acetylated lysine as substrate; type: biochemical; conditions: compound concentration 10 nM
Experimental: To measure the inhibitory properties of the compounds of the invention, a screening assay was performed using an aminocoumarin derivative of an omega-acetylated lysine as substrate for the enzmye. This assay has been described in detail in the literature (Hoffmann, K., et al., Nucleic Acids Res. 27 (1999)2057-2058). Using the protocol described therein, there was measured the inhibitory effect of the compounds at a concentration of 10 nM.

For O=C(CCCCCCCOc1ccc2c(c1)C(O)c1ccccc1-2)NO (racemic) [Example 2, rac-8-(9-Hydroxy-9H-fluoren-2-yloxy)-octanoic Acid Hydroxyamide], the “Inhibitory effect at 10 nM in %” value [1] was 79%.

For O=C(CCCCCCCOc1ccc2c(c1)C(=O)c1ccccc1CO2)NO [Example 1, 8-(11-Oxo-6,1 1-Dihydro-dibenzo[b,e]oxepin-2-yloxy)-octanoic Acid Hydroxyamide], the “Inhibitory effect at 10 nM in %” value [1] was 62%.

With O=C(CCCCCCCOc1ccc2c(c1)[nH]c1ccccc12)NO [Example 3, 8-(9H-Carbazol-2-yloxy)-octanoic Acid Hydroxyamide] the “Inhibitory effect at 10 nM in %” value [1] was 86%.

In the case of O=C(CCCCCCCOc1cccc2[nH]c3ccccc3c12)NO [Example 4, 8-(9H-Carbazol-4-yloxy)-octanoic Acid Hydroxyamide], the “Inhibitory effect at 10 nM in %” value [1] is reported as 97%.

In the case of O=C(CCCCCCOc1ccc2c(c1)[nH]c1ccccc12)NO [Example 5, 7-(9H-Carbazol-2-yloxy)-heptanoic Acid Hydroxyamide], the “Inhibitory effect at 10 nM in %” value [1] is reported as 100% and the melting point is reported as 198 °C.

In the case of O=C(CCCCCOc1ccc2c(c1)[nH]c1ccccc12)NO [Example 6, 6-(9H-Carbazol-2-yloxy)-hexanoic Acid Hydroxyamide], the “Inhibitory effect at 10 nM in %” value [1] is reported as 80% and the melting point is reported as 192 °C.

In the case of O=C(CCCCOc1ccc2c(c1)[nH]c1ccccc12)NO [Example 7, 5-(9H-Carbazol-2-yloxy)-pentanoic Acid Hydroxyamide], the “Inhibitory effect at 10 nM in %” value [1] is reported as 69%.
